Counter-ions that a name gives are not always drawn.
Legend:
GST-VEGFR2 = molecular target: T1, GST-VEGFR2 (Homo sapiens, UniProt P35968); experiment: VEGF-R2 enzyme assay (VEGF-E), LANCE method; assay type: biochemical; settings: GST-VEGFR2, 75 uM ATP, biotinylated peptide
T1 construct: baculovirus expressed recombinant constructs of the intracellular domains of human TIE2 tagged by GST; made in house
Excerpt: VEGF-R2 Enzyme Assay (VEGF-E)
The VEGF enzyme assay used the LANCE method (Wallac) and GST-VEGFR2, baculovirus expressed recombinant constructs of the intracellular domains of human TIE2 tagged by GST. The method measured the ability of the purified enzymes to catalyse the transfer of the γ-phosphate from ATP onto tyrosine residues in a biotinylated synthetic peptide, (biotin-aminohexyl-EEEEYFELVAKKKK-NH2). This peptide phosphorylation was detected using the following procedure: GST-VEGFR2 was incubated for 40-60 mins at room temperature with 75 uM ATP, 5 mM MgCl2, 0.1 mM DTT, 0.1 mg/mL BSA and the test compound (diluted from a 10 mM stock in DMSO for desired concentration) in 100 mM HEPES buffer. The reaction was stopped by the addition of EDTA (final concentration 50 mM). Streptavidin linked-APC (allophycocyanin, Molecular Probe) and Europium-labeled anti-phosphorylated tyrosine antibody (Wallac) were then added at the final concentration of 15 nM and 1 nM, respectively. The APC signal was measured using an ARVO multilabel counter (Wallac Berthold, Japan). The percent inhibition of activity was calculated relative to blank control wells. The concentration of test compound that inhibits 50% of activity (IC50) was interpolated using nonlinear regression (Levernberg-Marquardt) and the equation, y=Vmax (1−x/(K+x))+Y2, where “K” was equal to the IC50. The IC50 values were converted to pIC50 values, i.e., −log IC50 in Molar concentration.

Recombinant GST-Tie2 = Recombinant GST-Tie2 (Homo sapiens, UniProt Q02763); experiment: Tie2 fluorescence polarization kinase activity assay (TIE2-FP); assay type: biochemical; settings: activated Tie2, 200 μM ATP, peptide substrate
Description: Tie2 Fluorescence Polarization Kinase Activity Assay: (TIE2-FP)
Activation of Recombinant Tie2 Activation:
Recombinant GST-Tie2 was activated by incubating the enzyme in 20 mM Tris-HCl, pH 7.5, 12 mM MgCl2, 100 mM NaCl, 20 μM sodium vanidate, 1 mM DTT and 300 μM ATP at room temperature for 2 hours. The activation mixture was then passed through a NAP-25 desalting column (Pharmacia Biotech cat. no. 17-0852-02) to remove the free ATP. The activated enzyme was stored as aliquots at −80° C. in 20 mM Tris-HCl, pH 7.5 and 100 mM NaCl.
The final assay conditions were 50 mM HEPES, pH 7.5, 5% DMSO (when screening compounds), 200 μM ATP, 5 mM MgCl2, 1 mM DTT, 50 μM sodium vanidate, 1 nM activated enzyme, and 200 μM peptide. IC50's of compounds were measured under subsaturating ATP (200 μM) and varing concentrations of activated Tie2 and peptide substrate (RFWKYEFWR-OH; MW 1873 Da, TFA salt). Panvera Anti-phosphotyrosine antibody (Cat#P2840) and PTK Green Tracer (Cat#P2842) were used to detect the phosphorylated peptide. Polarization was measured on a TECAN Polarion in 138-second cycles for 30 minutes at room temperature. IC50's were then determined from the % polarization using normal calculation methods.

Sequence of Recombinant GST-Tie2 (Q02763 23-1124): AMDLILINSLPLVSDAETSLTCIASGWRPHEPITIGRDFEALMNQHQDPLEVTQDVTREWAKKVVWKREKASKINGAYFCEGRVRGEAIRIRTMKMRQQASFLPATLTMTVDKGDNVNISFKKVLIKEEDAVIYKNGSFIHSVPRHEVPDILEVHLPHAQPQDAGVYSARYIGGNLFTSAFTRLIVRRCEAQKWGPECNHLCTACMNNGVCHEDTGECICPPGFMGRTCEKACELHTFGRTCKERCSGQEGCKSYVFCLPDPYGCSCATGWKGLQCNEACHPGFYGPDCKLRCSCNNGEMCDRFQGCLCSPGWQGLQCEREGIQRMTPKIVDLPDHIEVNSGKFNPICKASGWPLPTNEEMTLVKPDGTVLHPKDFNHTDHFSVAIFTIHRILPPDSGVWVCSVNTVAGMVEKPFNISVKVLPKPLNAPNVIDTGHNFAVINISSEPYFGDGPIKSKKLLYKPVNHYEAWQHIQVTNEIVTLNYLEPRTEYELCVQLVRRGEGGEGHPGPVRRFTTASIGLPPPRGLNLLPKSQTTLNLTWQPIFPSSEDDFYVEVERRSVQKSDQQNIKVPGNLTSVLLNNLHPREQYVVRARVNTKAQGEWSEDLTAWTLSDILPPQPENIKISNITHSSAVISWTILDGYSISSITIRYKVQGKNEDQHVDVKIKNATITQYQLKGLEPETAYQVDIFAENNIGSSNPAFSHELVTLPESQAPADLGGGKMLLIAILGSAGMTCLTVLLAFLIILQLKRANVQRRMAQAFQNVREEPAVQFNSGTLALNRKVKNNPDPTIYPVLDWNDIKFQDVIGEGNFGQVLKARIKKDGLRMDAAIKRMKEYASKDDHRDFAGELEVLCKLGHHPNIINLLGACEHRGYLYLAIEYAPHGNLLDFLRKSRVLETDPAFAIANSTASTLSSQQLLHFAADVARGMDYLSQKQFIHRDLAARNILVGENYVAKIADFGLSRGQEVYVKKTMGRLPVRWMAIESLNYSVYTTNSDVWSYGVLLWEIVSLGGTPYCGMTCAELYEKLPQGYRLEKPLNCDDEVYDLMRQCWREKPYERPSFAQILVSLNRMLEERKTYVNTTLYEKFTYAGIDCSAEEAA
T1 sequence (P35968 786-1356 limits assumed): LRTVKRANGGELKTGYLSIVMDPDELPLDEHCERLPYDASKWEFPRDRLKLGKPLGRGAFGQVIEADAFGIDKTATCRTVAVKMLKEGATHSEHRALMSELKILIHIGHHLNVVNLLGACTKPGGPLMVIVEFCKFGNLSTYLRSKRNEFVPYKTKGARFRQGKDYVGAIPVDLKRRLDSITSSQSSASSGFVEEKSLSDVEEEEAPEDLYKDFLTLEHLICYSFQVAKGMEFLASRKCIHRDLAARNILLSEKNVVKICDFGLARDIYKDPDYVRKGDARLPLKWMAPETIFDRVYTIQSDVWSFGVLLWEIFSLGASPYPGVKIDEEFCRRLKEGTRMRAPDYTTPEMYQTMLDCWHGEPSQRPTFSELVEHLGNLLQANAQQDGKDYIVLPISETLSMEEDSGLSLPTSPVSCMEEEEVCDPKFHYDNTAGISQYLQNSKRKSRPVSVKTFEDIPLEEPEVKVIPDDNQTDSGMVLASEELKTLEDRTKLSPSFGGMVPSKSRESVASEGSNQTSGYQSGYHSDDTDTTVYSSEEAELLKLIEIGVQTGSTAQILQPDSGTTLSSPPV

Molecule	IC50 (GST-VEGFR2) [nM]	IC50 (Recombinant GST-Tie2) [nM]	TIE2-FP (Recombinant GST-Tie2)	VEGF-E (GST-VEGFR2)
CC(C)Nc1nc2cc(N(C)c3ccnc(Nc4cccc(OS(C)(=O)=O)c4)n3)ccc2n1C [Example 92, hydrochloride]	100 to 1000	1000 to 10000	–	–
Cn1c(Nc2cc(C(C)(C)C)on2)nc2cc(Nc3ccnc(Nc4ccc(CS(C)(=O)=O)cc4)n3)ccc21.O=C(O)C(F)(F)F [Example 135, N^2-(5-tert-Butyl-isoxazol-3-yl)-N^5-[2-(4-methanesulfonylmethyl-phenylamino)-pyrimidin-4-yl]-1-methyl-1-1H-benzoimidazole-2,5-diamine trifluoroacetate]	–	–	+ (+ = pIC50 of 5.0-6.0)	+++ (+++ = pIC50 of >7.0)
Cn1c(Nc2cc(C(C)(C)C)on2)nc2cc(Nc3ccnc(Nc4cccc(CS(C)(=O)=O)c4)n3)ccc21 [Example 136, N^2-(5-tert-Butyl-isoxazol-3-yl)-N^5-[2-(3-methanesulfonylmethyl-phenylamino)-pyrimidin-4-yl]-1-methyl-1H-benzoimidazole-2,5-diamine]	< 100	1000 to 10000	–	–
CN(c1ccc2c(c1)nc(NC(=O)Nc1ccccc1)n2C)c1ccnc(Nc2ccc(CS(C)(=O)=O)cc2)n1 [Example 142, N-(1-methyl-5-{methyl[2-({4-[(methylsulfonyl)methyl]phenyl}amino)pyrimidin-4-yl]amino}-1H-benzimidazol-2-yl)-N′-phenylurea]	< 100	–	–	–
CN(c1ccc2c(c1)nc(NC(=O)Cc1cccs1)n2C)c1ccnc(Nc2ccc(CS(C)(=O)=O)cc2)n1 [Example 153]	< 100	1000 to 10000	–	–
CN(c1ccc2c(c1)nc(NC(=O)C1CCCCC1)n2C)c1ccnc(Nc2cccc(CS(C)(=O)=O)c2)n1 [Example 157, Cyclohexanecarboxylic acid ({[2-(3-methanesulfonylmethyl-phenylamino)-pyrimidin-4-yl]-methyl-amino}-methyl-1H-benzoimidazol-2-yl)-amide]	–	–	–	+++ (+++ = pIC50 of >7.0)
CN(c1ccc2c(c1)nc(NC(=O)Cc1cccc(SC(F)(F)F)c1)n2C)c1ccnc(Nc2cccc(CS(C)(=O)=O)c2)n1 [Example 162, N-(5-{[2-(3-Methanesulfonylmethyl-phenylamino)-pyrimidin-4-yl]-methyl-amino}-1-methyl-1H-benzoimidazol-2-yl)-2-(3-trifluoromethylsulfanyl-phenyl)-acetamide]	< 100	1000 to 10000	–	–
CN(c1ccc2c(c1)nc(NC(=O)Cc1cccs1)n2C)c1ccnc(Nc2cccc(CS(C)(=O)=O)c2)n1 [Example 169, N-({[2-(3-Methanesulfonylmethyl-phenylamino)-pyrimidin-4-yl]-methyl-amino}-methyl-1H-benzoimidazol-2-yl)-C-thiophen-2-yl-acetamide]	< 100	1000 to 10000	–	–
Cc1cc(CC(=O)Nc2nc3cc(N(C)c4ccnc(Nc5ccc(CS(C)(=O)=O)cc5)n4)ccc3n2C)on1 [Example 173, N-({[2-(4-Methanesulfonylmethyl-phenylamino)-pyrimidin-4-yl]-methyl-amino}-methyl-1H-benzoimidazol-2-yl)-2-(3-methyl-isoxazol-5-yl)-acetamide]	–	–	+ (+ = pIC50 of 5.0-6.0)	+++ (+++ = pIC50 of >7.0)
CN(c1ccc2c(c1)nc(NC(=O)Cc1ccccc1)n2C)c1ccnc(Nc2ccc(CS(C)(=O)=O)cc2)n1 [Example 202, Phenyl-N-({[2-(4-methanesulfonylmethyl-phenylamino)-pyrimidin-4-yl]-methyl-amino}-methyl-1H-benzoimidazol-2-yl)-acetamide]	< 100	–	–	–
CN(c1ccc2c(c1)nc(NC(=O)C1(c3ccccc3)CC1)n2C)c1ccnc(Nc2ccc(CS(C)(=O)=O)cc2)n1 [Example 203, Phenylcyclopropanecarboxylic acid ({[2-(4-methanesulfonylmethyl-phenylamino)-pyrimidin-4-yl]-methyl-amino}-methyl-1H-benzoimidazol-2-yl)-amide]	< 100	< 100	–	–
CN(c1ccc2c(c1)nc(NC(=O)C1(c3cc(F)ccc3F)CC1)n2C)c1ccnc(Nc2ccc(CS(C)(=O)=O)cc2)n1 [Example 204, 1-(2,5-Difluoro-phenyl)-cyclopropanecarboxylic acid ({[2-(4-methanesulfonylmethyl-phenylamino)-pyrimidin-4-yl]-methyl-amino}-methyl-1H-benzoimidazol-2-yl)-amide]	100 to 1000	1000 to 10000	–	–
CN(c1ccc2c(c1)nc(NC(=O)Cc1ccc(F)cc1)n2C)c1ccnc(Nc2ccc(CS(C)(=O)=O)cc2)n1 [Example 206, 2-(4-Fluoro-phenyl)-N-({[2-(4-methanesulfonylmethyl-phenylamino)-pyrimidin-4-yl]-methyl-amino}-methyl-1H-benzoimidazol-2-yl)-acetamide]	< 100	1000 to 10000	–	–
COc1cccc(CC(=O)Nc2nc3cc(N(C)c4ccnc(Nc5ccc(CS(C)(=O)=O)cc5)n4)ccc3n2C)c1OC [Example 219, 2-(2,3-Dimethoxyphenyl)-N-(5-{[2-(4-methanesulfonylmethyl-phenylamino)-pyrimidin-4-yl]-methyl-amino}-1-methyl-1H-benzoimidazol-2-yl)-acetamide]	< 100	–	–	–
CN(c1ccc2c(c1)nc(NC(=O)Cc1ccc3c(c1)OCO3)n2C)c1ccnc(Nc2ccc(CS(C)(=O)=O)cc2)n1 [Example 239, Benzo[1,3]dioxol-5-yl-N-({[2-(4-methanesulfonylmethyl-phenylamino)-pyrimidin-4-yl]-methyl-amino}-methyl-1H-benzoimidazol-2-yl)-acetamide]	100 to 1000	–	–	–
N-({[2-(3-methanesulfonylmethyl-phenylamino)-pyrimidin-4-yl]-methyl-amino}-methyl-1H-benzoimidazol-2-yl)-3,5-bis-trifluoromethyl-benzamide [Example 156]	–	–	–	++ (++ = pIC50 of 6.0-7.0)

Further lines, results first:

IC50 (GST-VEGFR2) [nM]	IC50 (Recombinant GST-Tie2) [nM]	TIE2-FP (Recombinant GST-Tie2)	VEGF-E (GST-VEGFR2)	Molecule
< 100	–	–	–	CN(c1ccc2c(c1)nc(NCc1ccc(F)cc1)n2C)c1ccnc(Nc2cccc(S(N)(=O)=O)c2)n1 [Example 11, 3-(4-{[2-(4-Fluoro-benzylamino)-1-methyl-1H-benzoimidazol-5-yl]-methyl-amino}-pyrimidin-2-ylamino)-benzenesulfonamide hydrochloride]
< 100	–	–	–	CNS(=O)(=O)CCc1ccc(Nc2nccc(N(C)c3ccc4c(c3)nc(NC(C)C)n4C)n2)cc1 [Example 90, 2-(4-{4-[(2-Isopropylamino-1-methyl-1H-benzoimidazol-5-yl)-methyl-amino]-pyrimidin-2-ylamino}-phenyl)-ethanesulfonic acid methylamide hydrochloride]
< 100	100 to 1000	–	–	Cc1ccc(Nc2nccc(N(C)c3ccc4c(c3)nc(NCCc3ccccc3)n4C)n2)cc1S(N)(=O)=O [Example 95, 2-Methyl-5-{4-[methyl-(1-methyl-2-phenethylamino-1H-benzoimidazol-5-yl)-amino]-pyrimidin-2-ylamino}-benzenesulfonamide hydrochloride]
< 100	< 100	–	–	CN(c1ccc2c(c1)nc(Nc1ccc(C(F)(F)F)cc1)n2C)c1ccnc(Nc2ccc(CS(C)(=O)=O)cc2)n1 [Example 110, N^1-Methyl-N^5-[2-(4-Methanesulfonymethyl-phenylamino)-pyrimidin-4-yl]-N^5-methyl-N^2-(4-trifluoromethyl-phenyl)-1H-benzoimidazole-2,5-diamine]
< 100	< 100	–	–	CN(c1ccc2c(c1)nc(Nc1ccc(Cl)cc1)n2C)c1ccnc(Nc2ccc(CS(C)(=O)=O)cc2)n1 [Example 112]
< 100	100 to 1000	–	–	CN(c1ccc2c(c1)nc(Nc1cccc(F)c1)n2C)c1ccnc(Nc2ccc(CS(C)(=O)=O)cc2)n1 [Example 118]
< 100	100 to 1000	–	–	CN(c1ccc2c(c1)nc(Nc1ccccc1F)n2C)c1ccnc(Nc2ccc(CS(C)(=O)=O)cc2)n1 [Example 124]
< 100	< 100	–	–	CN(c1ccc2c(c1)nc(Nc1cc(C(F)(F)F)ccc1F)n2C)c1ccnc(Nc2ccc(CS(C)(=O)=O)cc2)n1 [Example 125]
